The values below come from ChEMBL document CHEMBL5523719, “Structure-activity relationship study of new carbazole sulfonamide derivatives as anticancer agents with dual-target mechanism” (Eur J Med Chem, 2024).

Test [1] relates to NCI/ADR-RES. The experiment in a line: Antiproliferation activity against human MCF7/ADR cells measured after 72 hrs incubation by MTT assay. The format is functional, cell-based.
Test [2] has as its system MCF7. The experiment in a line: Induction of apoptosis in human MCF7 cells assessed as necrotic cells at 25 nM measured after 48 hrs by AnnexinV/PI double staining assays (reference value: 0.89%). The format is functional.
Test [3] deals with MCF7. Nature of the test: Induction of cell cycle arrest in human MCF7 cells assessed as accumulation of cells at G0/G1 phase at 100 nM measured after 24 hrs by flow cytometry (reference value: 61.73%). Type of test: functional. On the technique in general: Flow cytometry measures light scatter and fluorescence of single cells or particles in a stream.
The subject of test [4] is MCF7. Nature of the test: Induction of apoptosis in human MCF7 cells assessed as viable cells at 6.25 nM measured after 48 hrs by AnnexinV/PI double staining assays (reference value: 91.20%). The format is functional. Conditions: read-out: Activity.
The subject of test [5] is MCF7. The experiment in a line: Induction of apoptosis in human MCF7 cells assessed as necrotic cells at 6.25 nM measured after 48 hrs by AnnexinV/PI double staining assays (reference value: 0.89%). The format is functional.
Test [6] deals with MCF7. The experiment in a line: Induction of apoptosis in human MCF7 cells assessed as viable cells at 12.5 nM measured after 48 hrs by AnnexinV/PI double staining assays (reference value: 91.20%). The settings on record: read-out: Activity. The format is functional.
Test [7] has as its system HMEC-1. Nature of the test: Anti-proliferative activity against human HMEC-1 cells measured after 48 hrs. Type of test: functional, cell-based. The settings on record: HMEC-1, 48 h.
Test [8] deals with MCF7. The experiment in a line: Induction of cell cycle arrest in human MCF7 cells assessed as accumulation of cells at G2/M phase at 100 nM measured after 24 hrs by flow cytometry (reference value: 22.84%). Type of test: functional.
For test [9], the target named is T1, DNA topoisomerase 1 (Homo sapiens) (UniProt P11387).
T1 sequence (whole entry): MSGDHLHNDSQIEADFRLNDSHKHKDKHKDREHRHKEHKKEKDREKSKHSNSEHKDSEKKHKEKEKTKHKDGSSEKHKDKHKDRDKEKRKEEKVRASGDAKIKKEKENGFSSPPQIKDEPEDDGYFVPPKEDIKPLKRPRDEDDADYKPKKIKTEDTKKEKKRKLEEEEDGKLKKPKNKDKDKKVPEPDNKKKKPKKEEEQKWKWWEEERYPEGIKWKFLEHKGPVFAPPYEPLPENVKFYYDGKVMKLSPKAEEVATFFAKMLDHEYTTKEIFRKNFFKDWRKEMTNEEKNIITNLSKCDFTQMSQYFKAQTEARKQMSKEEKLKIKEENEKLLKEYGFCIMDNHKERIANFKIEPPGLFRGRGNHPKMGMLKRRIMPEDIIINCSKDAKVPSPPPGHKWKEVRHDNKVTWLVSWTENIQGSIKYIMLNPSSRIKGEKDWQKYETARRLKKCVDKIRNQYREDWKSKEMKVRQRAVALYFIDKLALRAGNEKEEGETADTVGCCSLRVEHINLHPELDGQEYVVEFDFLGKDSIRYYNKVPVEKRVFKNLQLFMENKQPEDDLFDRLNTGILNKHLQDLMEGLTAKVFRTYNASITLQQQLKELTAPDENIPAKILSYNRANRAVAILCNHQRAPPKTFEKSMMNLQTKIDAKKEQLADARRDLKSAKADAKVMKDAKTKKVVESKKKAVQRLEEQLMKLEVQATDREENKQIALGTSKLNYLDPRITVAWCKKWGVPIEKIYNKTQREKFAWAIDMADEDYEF
Nature of the test: Inhibition of human DNA topoisomerase 1 assessed as relaxation of supercoiled pBR322 DNA as substrate incubated for 30 mins by gel staining based electrophoresis analysis. The settings on record: dose 20-200 µM.

Test [10] concerns MCF7. Nature of the test: Induction of cell cycle arrest in human MCF7 cells assessed as accumulation of cells at G2/M phase at 500 nM measured after 24 hrs by flow cytometry (reference value: 22.84%). The format is functional.
Test [11] concerns MCF7. Nature of the test: Induction of apoptosis in human MCF7 cells assessed as necrotic cells at 50 nM measured after 48 hrs by AnnexinV/PI double staining assays (reference value: 0.89%). Type of test: functional.

As a reminder, the IC50 is the midpoint of a concentration-inhibition curve. The low end stands for greater potency in that assay, the high end for weaker potency in that assay. With `COc1cc(NS(=O)(=O)c2ccc3c(c2)c2ccc(N)cc2n3C)c(OC)cc1Cl`, the half-maximal inhibitory concentration (IC50) in test [1] came out at 1.86 nM; in test [7], 6.42 nM. Also, the Activity is 0.51% in test [2]; 4.32% in test [3]; 0.1% in [5]; 41.21% in [8]; 53.2% in test [10]; 0.08% in test [11]. Besides, the viability at 0.00625 µM in test [4] came to 76.1%. Further, in test [6], the viability at 0.0125 µM is 64.2%. In addition, the inhibition result in [9] is “Dose-Dependent Effect”.
